# Values of other authors as cited in PMC8875686, “Oral Formulation Based on Irbesartan Nanocrystals Improve Drug Solubility, Absorbability, and Efficacy” (Pharmaceutics, 2022).
# How the values were obtained:
# [1] = room temperature
# [2] = oral administration
smiles,measurement,setting,value
CCCCC1=NC2(CCCC2)C(=O)N1Cc1ccc(-c2ccccc2-c2nnn[nH]2)cc1 [form B],solubility,[1],~0.6 µg/mL
CCCCC1=NC2(CCCC2)C(=O)N1Cc1ccc(-c2ccccc2-c2nnn[nH]2)cc1 [form A],solubility,[1],approximately 0.011 mg/mL
"CCCCC1=NC2(CCCC2)C(=O)N1Cc1ccc(-c2ccccc2-c2nnn[nH]2)cc1 [IRB, Irbesartan]",average absolute bioavailability (BA),[2],60–80%
same,time of Cmax (peak plasma concentrations),[2],1.5 to 2 h
